Measurements: ChEMBL document CHEMBL4219073, “Development of selective inhibitors for the treatment of rheumatoid arthritis: (R)-3-(3-(Methyl(7H-pyrrolo[2,3-d]pyrimidin-4-yl)amino)pyrrolidin-1-yl)-3-oxopropanenitrile as a JAK1-selective inhibitor” (Bioorg Med Chem, 2018)
pIC50: −log10 of the molar value.

Assays:
[1] = molecular target: Tyrosine-protein kinase JAK2 (Homo sapiens, UniProt O60674); format: ADME
Description: Inhibition of recombinant human JAK2 (808-end residues) in presence of ATP

[2] = molecular target: Tyrosine-protein kinase JAK1 (Homo sapiens, UniProt P23458)
Description: Inhibition of recombinant human JAK1 (866-end residues) in presence of ATP

in vitro [3] = conditions: dog, microsomes
Description: Metabolic stability in dog liver microsomes assessed as parent compound remaining after 30 mins

in vitro [4] = conditions: human, microsomes
Description: Metabolic stability in human liver microsomes assessed as parent compound remaining after 30 mins

in vitro [5] = conditions: mouse, microsomes
Description: Metabolic stability in mouse liver microsomes assessed as parent compound remaining after 30 mins

in vitro [6] = conditions: rat, microsomes
Description: Metabolic stability in rat liver microsomes assessed as parent compound remaining after 30 mins

Sequence of Tyrosine-protein kinase JAK2 (O60674 whole entry): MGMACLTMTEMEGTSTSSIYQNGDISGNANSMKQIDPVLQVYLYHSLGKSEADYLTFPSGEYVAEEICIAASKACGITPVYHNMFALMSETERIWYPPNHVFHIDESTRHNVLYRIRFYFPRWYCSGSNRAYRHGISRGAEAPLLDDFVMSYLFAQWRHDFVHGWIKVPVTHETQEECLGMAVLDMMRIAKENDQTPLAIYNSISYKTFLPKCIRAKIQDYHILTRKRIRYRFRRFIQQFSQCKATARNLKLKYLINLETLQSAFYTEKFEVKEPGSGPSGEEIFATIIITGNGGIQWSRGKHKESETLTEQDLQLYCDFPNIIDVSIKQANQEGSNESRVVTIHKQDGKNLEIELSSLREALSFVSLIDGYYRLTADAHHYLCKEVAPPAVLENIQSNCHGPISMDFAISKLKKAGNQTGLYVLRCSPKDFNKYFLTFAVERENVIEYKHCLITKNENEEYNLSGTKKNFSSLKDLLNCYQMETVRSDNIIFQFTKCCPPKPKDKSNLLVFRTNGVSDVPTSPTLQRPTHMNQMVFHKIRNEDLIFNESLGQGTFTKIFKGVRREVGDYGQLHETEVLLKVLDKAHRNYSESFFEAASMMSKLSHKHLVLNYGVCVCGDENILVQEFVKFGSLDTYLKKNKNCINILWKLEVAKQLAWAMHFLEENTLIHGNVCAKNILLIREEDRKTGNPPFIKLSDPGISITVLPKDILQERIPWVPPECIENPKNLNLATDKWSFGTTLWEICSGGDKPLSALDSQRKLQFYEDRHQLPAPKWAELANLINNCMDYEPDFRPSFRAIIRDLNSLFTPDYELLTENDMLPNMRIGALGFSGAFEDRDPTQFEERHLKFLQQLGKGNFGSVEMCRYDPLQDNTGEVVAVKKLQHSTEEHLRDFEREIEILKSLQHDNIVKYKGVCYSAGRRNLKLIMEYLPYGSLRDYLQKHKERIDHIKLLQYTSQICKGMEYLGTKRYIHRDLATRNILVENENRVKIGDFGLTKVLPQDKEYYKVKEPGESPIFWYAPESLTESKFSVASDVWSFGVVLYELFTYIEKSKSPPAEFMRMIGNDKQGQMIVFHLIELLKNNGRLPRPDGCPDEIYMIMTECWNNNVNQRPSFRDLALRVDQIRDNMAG
Sequence of Tyrosine-protein kinase JAK1 (P23458 whole entry): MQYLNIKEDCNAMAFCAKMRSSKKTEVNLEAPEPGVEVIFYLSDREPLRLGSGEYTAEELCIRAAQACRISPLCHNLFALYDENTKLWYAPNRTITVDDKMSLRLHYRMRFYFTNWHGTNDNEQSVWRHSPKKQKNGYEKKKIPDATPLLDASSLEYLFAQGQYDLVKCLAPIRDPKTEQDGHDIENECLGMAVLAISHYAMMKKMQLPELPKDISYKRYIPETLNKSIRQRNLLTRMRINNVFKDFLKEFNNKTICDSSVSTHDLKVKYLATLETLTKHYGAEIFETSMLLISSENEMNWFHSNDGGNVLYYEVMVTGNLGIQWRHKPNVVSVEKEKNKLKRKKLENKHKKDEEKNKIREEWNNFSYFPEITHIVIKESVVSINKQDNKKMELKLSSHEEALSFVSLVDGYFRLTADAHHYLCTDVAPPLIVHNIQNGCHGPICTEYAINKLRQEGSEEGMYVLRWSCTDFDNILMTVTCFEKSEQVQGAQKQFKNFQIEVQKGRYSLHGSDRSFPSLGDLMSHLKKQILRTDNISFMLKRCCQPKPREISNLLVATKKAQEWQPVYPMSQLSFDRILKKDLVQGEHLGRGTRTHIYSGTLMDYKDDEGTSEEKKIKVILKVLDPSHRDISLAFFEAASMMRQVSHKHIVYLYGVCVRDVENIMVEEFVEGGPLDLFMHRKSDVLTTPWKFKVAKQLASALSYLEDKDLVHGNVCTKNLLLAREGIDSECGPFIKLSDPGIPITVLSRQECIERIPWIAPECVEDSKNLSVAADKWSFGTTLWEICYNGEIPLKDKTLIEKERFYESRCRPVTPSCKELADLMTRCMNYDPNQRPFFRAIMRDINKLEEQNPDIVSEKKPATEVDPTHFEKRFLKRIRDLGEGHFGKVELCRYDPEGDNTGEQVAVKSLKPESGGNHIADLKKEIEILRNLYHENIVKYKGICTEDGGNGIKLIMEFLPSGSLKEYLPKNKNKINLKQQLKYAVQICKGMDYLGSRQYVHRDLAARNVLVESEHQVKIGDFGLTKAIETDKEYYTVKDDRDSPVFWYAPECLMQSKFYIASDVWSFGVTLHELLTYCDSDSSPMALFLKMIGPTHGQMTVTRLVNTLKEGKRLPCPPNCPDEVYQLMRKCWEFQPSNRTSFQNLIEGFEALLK

Compound | pIC50 [1] | pIC50 [2] | remaining at 0.5 h (in vitro [3]) | remaining at 0.5 h (in vitro [4]) | remaining at 0.5 h (in vitro [5]) | remaining at 0.5 h (in vitro [6])
CN(c1ncnc2[nH]ccc12)[C@H]1CN(C(=O)CC#N)CC1(C)C | 5.23 | 6.59 |  |  |  | 
CN(c1ncnc2[nH]ccc12)[C@@H]1CCN(S(C)(=O)=O)C1 | 5.33 | 7.15 |  |  |  | 
CC(C)S(=O)(=O)N1CC[C@@H](N(C)c2ncnc3[nH]ccc23)C1 | 5.32 | 6.77 |  |  |  | 
CN(c1ncnc2[nH]ccc12)[C@@H]1CCN(S(=O)(=O)c2ccc(C#N)cc2)C1 | 5.92 | 7.96 |  |  |  | 
CN(c1ncnc2[nH]ccc12)[C@@H]1CCN(S(=O)(=O)c2cccc(C#N)c2)C1 | 7.24 | 8.39 | 31.6% | 26.3% | 10% | 3.7%
CCN(c1ncnc2[nH]ccc12)[C@@H]1CCN(S(=O)(=O)c2cccc(C#N)c2)C1 | 6.96 | 7.72 |  |  |  | 
CN(c1ncnc2[nH]ccc12)[C@@H]1CCN(S(=O)(=O)N2CCCCC2)C1 | 5.41 | 7.18 |  |  |  | 
CN(c1ncnc2[nH]ccc12)[C@@H]1CCN(S(=O)(=O)C(F)(F)F)C1 | 5.35 | 6.85 |  |  |  | 
CN(c1ncnc2[nH]ccc12)[C@@H]1CCN(S(=O)(=O)c2ccc([N+](=O)[O-])cc2)C1 | 7.05 | 8.44 |  |  |  | 
CN(c1ncnc2[nH]ccc12)[C@@H]1CCN(S(=O)(=O)c2ccccc2[N+](=O)[O-])C1 | 5.96 | 6.96 |  |  |  | 
CN(c1ncnc2[nH]ccc12)[C@@H]1CCN(S(=O)(=O)c2ccccc2C#N)C1 | 6.43 | 7.28 |  |  |  | 
N#CCC(=O)N1CC[C@@H](N(CC2CC2)c2ncnc3[nH]ccc23)C1 | 5.77 | 6.80 |  |  |  | 
CN(c1ncnc2[nH]ccc12)[C@@H]1CCN(S(=O)(=O)c2ccc(F)cc2)C1 | 6.96 | 7.96 |  |  |  | 
Cc1ccc(S(=O)(=O)N2CC[C@@H](N(C)c3ncnc4[nH]ccc34)C2)cc1 | 5.74 | 7.72 |  |  |  | 
CN(c1ncnc2[nH]ccc12)[C@@H]1CCN(CCC#N)C1 | 5.72 | 7.28 |  |  |  | 
CN(c1ncnc2[nH]ccc12)[C@H]1CN(C(=O)CC#N)CC12CCC2 | 6.35 | 7.80 |  |  |  | 
CN(c1ncnc2[nH]ccc12)[C@@H]1CCN(S(=O)(=O)N2CCOCC2)C1 | 5.36 | 6.57 |  |  |  | 
CCCS(=O)(=O)N1CC[C@@H](N(C)c2ncnc3[nH]ccc23)C1 | 6.34 | 7.47 |  |  |  | 
